Reference: article PMC5218480 (PLoS ONE, 2017)

Test system: MV-4-11 cells
Assay: Gene expression microarray analysis (Affymetrix PrimeView) and GSEA
Assay type: cell-based, human
Parameters: RFU PODN (11730768_x_at) / Fold change /veh PODN (11730768_x_at) / RFU LINC00158 (11744669_a_at) / Fold change /veh LINC00158 (11744669_a_at) / RFU DUSP10 (11751237_a_at) / Fold change /veh DUSP10 (11751237_a_at) / RFU ID3 (11757404_x_at) / Fold change /veh ID3 (11757404_x_at) / RFU PLEKHG5 (11737974_s_at) / Fold change /veh PLEKHG5 (11737974_s_at) / RFU LRRC4B (11730491_at) / Fold change /veh LRRC4B (11730491_at) / RFU GIMAP4 (11747438_a_at) / Fold change /veh GIMAP4 (11747438_a_at) / RFU KRT8 (11758183_x_at) / Fold change /veh KRT8 (11758183_x_at) / RFU CNN1 (11734310_a_at) / Fold change /veh CNN1 (11734310_a_at) / RFU VPS37D (11726825_at) / Fold change /veh VPS37D (11726825_at) / RFU C10orf10 (11716522_x_at) / Fold change /veh C10orf10 (11716522_x_at) / RFU KIR2DL2 /// KIR2DL4 /// KIR2DL5A /// KIR2DL5B /// KIR2DS1 /// KIR2DS2 /// KIR2DS3 /// KIR2DS4 /// KIR3DL3 /// KIR3DL3 /// KIR3DS1 (11738374_at) / Fold change /veh KIR2DL2 /// KIR2DL4 /// KIR2DL5A /// KIR2DL5B /// KIR2DS1 /// KIR2DS2 /// KIR2DS3 /// KIR2DS4 /// KIR3DL3 /// KIR3DL3 /// KIR3DS1 (11738374_at) / RFU C1QL1 (11718748_at) / Fold change /veh C1QL1 (11718748_at) / RFU TMPRSS4 (11747572_a_at) / Fold change /veh TMPRSS4 (11747572_a_at) / RFU HAMP (11756126_x_at) / Fold change /veh HAMP (11756126_x_at) / RFU RNFT2 (11725882_a_at) / Fold change /veh RNFT2 (11725882_a_at) / RFU NR4A2 (11747474_a_at) / Fold change /veh NR4A2 (11747474_a_at) / RFU ABCC12 (11746883_a_at) / Fold change /veh ABCC12 (11746883_a_at) / RFU TMEM136 (11760407_x_at) / Fold change /veh TMEM136 (11760407_x_at) / RFU CLDN22 /// WWC2 (11732394_at) / Fold change /veh CLDN22 /// WWC2 (11732394_at) / RFU HLA-DPB1 (11760878_x_at) / Fold change /veh HLA-DPB1 (11760878_x_at) / RFU SPINT1 (11716480_a_at) / Fold change /veh SPINT1 (11716480_a_at) / RFU GAP43 (11754022_s_at) / Fold change /veh GAP43 (11754022_s_at) / RFU A4GNT (11735810_at) / Fold change /veh A4GNT (11735810_at) / RFU PRB3 (11715151_x_at) / Fold change /veh PRB3 (11715151_x_at) / RFU TUBB4B (11761932_at) / Fold change /veh TUBB4B (11761932_at) / RFU CAPN14 (11732068_a_at) / Fold change /veh CAPN14 (11732068_a_at) / RFU TMCC2 (11721928_a_at) / Fold change /veh TMCC2 (11721928_a_at) / RFU IRGQ (11745062_a_at) / Fold change /veh IRGQ (11745062_a_at) / RFU FAM174B (11720279_a_at) / Fold change /veh FAM174B (11720279_a_at) / RFU TMPRSS4 (11748680_a_at) / Fold change /veh TMPRSS4 (11748680_a_at) / RFU FAM212B (11763350_a_at) / Fold change /veh FAM212B (11763350_a_at) / RFU PLEKHG5 (11743358_a_at) / Fold change /veh PLEKHG5 (11743358_a_at) / RFU ZSCAN30 (11745921_a_at) / Fold change /veh ZSCAN30 (11745921_a_at) / RFU CMKLR1 (11741424_a_at) / Fold change /veh CMKLR1 (11741424_a_at) / RFU LOC101060620 /// MAPK8IP1 (11723275_at) / Fold change /veh LOC101060620 /// MAPK8IP1 (11723275_at) / RFU SPTSSB (11747773_x_at) / Fold change /veh SPTSSB (11747773_x_at) / RFU PRSS12 (11739890_at) / Fold change /veh PRSS12 (11739890_at) / RFU BIN1 (11741810_x_at) / Fold change /veh BIN1 (11741810_x_at) / RFU WNT11 (11732464_a_at) / Fold change /veh WNT11 (11732464_a_at) / RFU C10orf10 (11716521_a_at) / Fold change /veh C10orf10 (11716521_a_at) / RFU C5orf56 (11738089_at) / Fold change /veh C5orf56 (11738089_at) / RFU CYB561 (11721691_x_at) / Fold change /veh CYB561 (11721691_x_at) / RFU ANKRD19P (11752326_a_at) / Fold change /veh ANKRD19P (11752326_a_at) / RFU OR2T12 /// OR2T33 /// OR2T8 (11738714_s_at) / Fold change /veh OR2T12 /// OR2T33 /// OR2T8 (11738714_s_at) / RFU VCAN (11748164_a_at) / Fold change /veh VCAN (11748164_a_at) / RFU JSRP1 (11732532_at) / Fold change /veh JSRP1 (11732532_at) / RFU KRTAP10-11 (11738290_x_at) / Fold change /veh KRTAP10-11 (11738290_x_at) / RFU MYO3A (11730013_a_at) / Fold change /veh MYO3A (11730013_a_at) / RFU EBF3 (11725865_a_at) / Fold change /veh EBF3 (11725865_a_at) / RFU CAMK2N1 (11719241_x_at) / Fold change /veh CAMK2N1 (11719241_x_at) / RFU C5orf56 (11738088_a_at) / Fold change /veh C5orf56 (11738088_a_at) / RFU OLFML3 (11715873_a_at) / Fold change /veh OLFML3 (11715873_a_at) / RFU LOC100653217 /// NTM (11731650_a_at) / Fold change /veh LOC100653217 /// NTM (11731650_a_at) / RFU MAPK11 (11762145_a_at) / Fold change /veh MAPK11 (11762145_a_at) / RFU FIZ1 (11724087_x_at) / Fold change /veh FIZ1 (11724087_x_at) / RFU OASL (11726364_x_at) / Fold change /veh OASL (11726364_x_at) / RFU SOX15 (11748057_x_at) / Fold change /veh SOX15 (11748057_x_at) / RFU CD79A (11719716_a_at) / Fold change /veh CD79A (11719716_a_at) / RFU HIST1H1D (11736915_at) / Fold change /veh HIST1H1D (11736915_at) / RFU CASKIN2 (11723855_a_at) / Fold change /veh CASKIN2 (11723855_a_at) / RFU LOC730098 (11760151_x_at) / Fold change /veh LOC730098 (11760151_x_at) / RFU OR4N2 (11742367_at) / Fold change /veh OR4N2 (11742367_at) / RFU PRRT2 (11749266_a_at) / Fold change /veh PRRT2 (11749266_a_at) / RFU SNX32 (11753110_a_at) / Fold change /veh SNX32 (11753110_a_at) / RFU CDHR5 (11726645_a_at) / Fold change /veh CDHR5 (11726645_a_at) / RFU RCAN1 (11760418_a_at) / Fold change /veh RCAN1 (11760418_a_at) / RFU FAM167A (11723789_a_at) / Fold change /veh FAM167A (11723789_a_at) / RFU FAM26E (11764081_at) / Fold change /veh FAM26E (11764081_at) / RFU ISYNA1 (11749810_s_at) / Fold change /veh ISYNA1 (11749810_s_at) / RFU ACY1 (11761880_at) / Fold change /veh ACY1 (11761880_at) / RFU 11764098_at / Fold change /veh 11764098_at / RFU SAMD14 (11745864_x_at) / Fold change /veh SAMD14 (11745864_x_at) / RFU NPB (11741838_a_at) / Fold change /veh NPB (11741838_a_at) / RFU TMPRSS6 (11731388_a_at) / Fold change /veh TMPRSS6 (11731388_a_at) / RFU KRTAP10-2 (11738614_at) / Fold change /veh KRTAP10-2 (11738614_at) / RFU ARHGAP8 /// PRR5-ARHGAP8 (11727945_x_at) / Fold change /veh ARHGAP8 /// PRR5-ARHGAP8 (11727945_x_at) / RFU KRTAP5-7 /// NADSYN1 (11734609_at) / Fold change /veh KRTAP5-7 /// NADSYN1 (11734609_at) / RFU RASL12 (11751679_a_at) / Fold change /veh RASL12 (11751679_a_at) / RFU CDKN2B (11736163_a_at) / Fold change /veh CDKN2B (11736163_a_at) / RFU PRF1 (11729649_at) / Fold change /veh PRF1 (11729649_at) / RFU, ZNF638 /// ZNF638-IT1 / Fold change vs veh, ZNF638 /// ZNF638-IT1 / RFU, PANK3 / Fold change vs veh, PANK3 / RFU, SH3YL1 / Fold change vs veh, SH3YL1 / RFU, ZEB2 / Fold change vs veh, ZEB2 / RFU, NRIP1 / Fold change vs veh, NRIP1 / RFU, PTTG1IP / Fold change vs veh, PTTG1IP / RFU, CAPN2 / Fold change vs veh, CAPN2 / RFU, MED14 / Fold change vs veh, MED14 / RFU, SNORA58 / Fold change vs veh, SNORA58 / RFU, C1orf63 / Fold change vs veh, C1orf63 / RFU, LRRFIP1 / Fold change vs veh, LRRFIP1 / RFU, NDUFAF7 / Fold change vs veh, NDUFAF7 / RFU, SLC12A2 / Fold change vs veh, SLC12A2 / RFU, IBTK / Fold change vs veh, IBTK / RFU, ESF1 / Fold change vs veh, ESF1 / Fold change vs veh, TMEM50B / RFU, TAOK1 / Fold change vs veh, TAOK1 / RFU, ACBD3 / Fold change vs veh, ACBD3 / RFU, TMA16 / Fold change vs veh, TMA16 / RFU, RWDD3 / Fold change vs veh, RWDD3 / RFU, BCAT1 / Fold change vs veh, BCAT1 / RFU, EDEM3 / Fold change vs veh, EDEM3 / RFU, TMEM33 / Fold change vs veh, TMEM33 / RFU, WDR75 / Fold change vs veh, WDR75 / RFU, AHCTF1 / Fold change vs veh, AHCTF1 / RFU, TFRC / Fold change vs veh, TFRC / RFU, ZDHHC17 / Fold change vs veh, ZDHHC17 / RFU, NOM1 / Fold change vs veh, NOM1 / RFU, ARL8B / Fold change vs veh, ARL8B / RFU, ZBTB11 / Fold change vs veh, ZBTB11 / RFU, TAMM41 / Fold change vs veh, TAMM41 / RFU, KIAA1704 /// LOC100996395 / Fold change vs veh, KIAA1704 /// LOC100996395 / RFU, ING1 / Fold change vs veh, ING1 / RFU, TRMT61B / Fold change vs veh, TRMT61B / RFU, FUBP3 / Fold change vs veh, FUBP3 / RFU, TP53 / Fold change vs veh, TP53 / RFU, TNKS2 / Fold change vs veh, TNKS2 / RFU, ZFP14 / Fold change vs veh, ZFP14 / RFU, ACTR2 / Fold change vs veh, ACTR2 / RFU, PPP3R1 / Fold change vs veh, PPP3R1 / RFU, PIK3R1 / Fold change vs veh, PIK3R1 / RFU, HNRNPA1 / Fold change vs veh, HNRNPA1 / RFU, RNF170 / Fold change vs veh, RNF170 / RFU, ZNF28 / Fold change vs veh, ZNF28 / RFU, RNGTT / Fold change vs veh, RNGTT / RFU, OGT / Fold change vs veh, OGT / RFU, BRD1 / Fold change vs veh, BRD1 / RFU, MARS / Fold change vs veh, MARS / RFU, ZNF655 / Fold change vs veh, ZNF655 / RFU, FAHD1 / Fold change vs veh, FAHD1 / RFU, BDP1 / Fold change vs veh, BDP1 / RFU, LRRCC1 / Fold change vs veh, LRRCC1 / RFU, ARID1A / Fold change vs veh, ARID1A / RFU, ZNF146 / Fold change vs veh, ZNF146 / RFU, ZNF330 / Fold change vs veh, ZNF330 / RFU, GPN3 / Fold change vs veh, GPN3 / RFU, C9orf123 / Fold change vs veh, C9orf123 / RFU, N4BP2L2 / Fold change vs veh, N4BP2L2 / RFU, ARFIP1 / Fold change vs veh, ARFIP1 / RFU, FAM179B / Fold change vs veh, FAM179B / RFU, BCL10 / Fold change vs veh, BCL10 / RFU, UHRF1BP1L / Fold change vs veh, UHRF1BP1L / RFU, BET1 / Fold change vs veh, BET1 / RFU, CNOT2 / Fold change vs veh, CNOT2 / RFU, ZNF268 / Fold change vs veh, ZNF268 / Fold change vs veh, ZNF507 / RFU, DGCR2 / Fold change vs veh, DGCR2 / RFU, WDSUB1 / Fold change vs veh, WDSUB1 / Fold change vs veh, HSP90B1 /// MIR3652 / RFU, ADSS / Fold change vs veh, ADSS / RFU, GK / Fold change vs veh, GK / RFU, ZNF148 / Fold change vs veh, ZNF148 / RFU, TAF9 / Fold change vs veh, TAF9 / RFU, SLC1A5 / Fold change vs veh, SLC1A5 / RFU, SLMO2 / Fold change vs veh, SLMO2 / RFU, ABCC4 / Fold change vs veh, ABCC4 / RFU, LOC101060439 /// RAP1B / Fold change vs veh, LOC101060439 /// RAP1B / RFU, RFX7 / Fold change vs veh, RFX7 / RFU, GTPBP10 / Fold change vs veh, GTPBP10 / RFU, CNEP1R1 / Fold change vs veh, CNEP1R1 / RFU, BIVM-ERCC5 /// ERCC5 / Fold change vs veh, BIVM-ERCC5 /// ERCC5 / RFU, ILF3 / Fold change vs veh, ILF3 / RFU 11762660_at / Fold change /veh 11762660_at / RFU VCAN (11757783_s_at) / Fold change /veh VCAN (11757783_s_at) / RFU DDX43 (11728927_at) / Fold change /veh DDX43 (11728927_at) / RFU KRT8 (11758188_x_at) / Fold change /veh KRT8 (11758188_x_at) / RFU NKD1 (11759106_at) / Fold change /veh NKD1 (11759106_at) / RFU SRD5A1 (11742802_a_at) / Fold change /veh SRD5A1 (11742802_a_at) / RFU TPSAB1 /// TPSB2 (11721975_s_at) / Fold change /veh TPSAB1 /// TPSB2 (11721975_s_at) / RFU GSTM3 (11746129_a_at) / Fold change /veh GSTM3 (11746129_a_at) / RFU IL23R (11737362_x_at) / Fold change /veh IL23R (11737362_x_at) / RFU TMEM51 (11727254_a_at) / Fold change /veh TMEM51 (11727254_a_at) / RFU PIWIL2 (11732686_x_at) / Fold change /veh PIWIL2 (11732686_x_at) / RFU ORM1 (11744905_x_at) / Fold change /veh ORM1 (11744905_x_at) / RFU CCDC152 (11743942_at) / Fold change /veh CCDC152 (11743942_at) / RFU ECM1 (11717891_a_at) / Fold change /veh ECM1 (11717891_a_at) / RFU IL23R (11748794_a_at) / Fold change /veh IL23R (11748794_a_at) / RFU TNFAIP8L3 (11732012_x_at) / Fold change /veh TNFAIP8L3 (11732012_x_at) / RFU MBOAT4 (11741988_at) / Fold change /veh MBOAT4 (11741988_at) / RFU 11764193_at / Fold change /veh 11764193_at / RFU TMEM53 (11763286_at) / Fold change /veh TMEM53 (11763286_at) / RFU MAGEB2 (11727129_at) / Fold change /veh MAGEB2 (11727129_at) / RFU TMEM200A (11744735_a_at) / Fold change /veh TMEM200A (11744735_a_at) / RFU CCDC152 (11751479_a_at) / Fold change /veh CCDC152 (11751479_a_at) / RFU FAM211A (11726209_a_at) / Fold change /veh FAM211A (11726209_a_at) / RFU RGS16 (11746705_a_at) / Fold change /veh RGS16 (11746705_a_at) / RFU VCAN (11755009_s_at) / Fold change /veh VCAN (11755009_s_at) / RFU RHOB (11743442_s_at) / Fold change /veh RHOB (11743442_s_at) / RFU RGS16 (11720943_a_at) / Fold change /veh RGS16 (11720943_a_at) / RFU RGS16 (11720944_at) / Fold change /veh RGS16 (11720944_at) / RFU, VPS4B / Fold change vs veh, VPS4B / RFU, CREB1 / Fold change vs veh, CREB1 / RFU, DNAJC13 / Fold change vs veh, DNAJC13 / RFU, GNAQ / Fold change vs veh, GNAQ / RFU, CDK5R1 / Fold change vs veh, CDK5R1 / RFU, ZRANB3 / Fold change vs veh, ZRANB3 / RFU, CUL4A / Fold change vs veh, CUL4A / RFU, CCNY / Fold change vs veh, CCNY / RFU, UFL1 / Fold change vs veh, UFL1 / RFU, COG3 / Fold change vs veh, COG3 / RFU, DIAPH2 / Fold change vs veh, DIAPH2 / RFU, SKA2 / Fold change vs veh, SKA2 / RFU, AFF3 / Fold change vs veh, AFF3 / RFU, LMF1 / Fold change vs veh, LMF1 / RFU, IPO11 / Fold change vs veh, IPO11 / RFU, DFFB / Fold change vs veh, DFFB / RFU, FOXP1 / Fold change vs veh, FOXP1 / RFU, CARD8 / Fold change vs veh, CARD8 / RFU, STRN3 / Fold change vs veh, STRN3 / RFU, ADK / Fold change vs veh, ADK / RFU, RASSF2 / Fold change vs veh, RASSF2 / RFU, WIPF1 / Fold change vs veh, WIPF1 / RFU, LARP1B / Fold change vs veh, LARP1B / RFU, RASA1 / Fold change vs veh, RASA1 / RFU, RB1 / Fold change vs veh, RB1 / RFU, PPFIA1 / Fold change vs veh, PPFIA1 / RFU, MAT2A / Fold change vs veh, MAT2A / RFU, CCT5 / Fold change vs veh, CCT5 / RFU, WDR92 / Fold change vs veh, WDR92 / RFU, CUX1 / Fold change vs veh, CUX1 / RFU, TTC7A / Fold change vs veh, TTC7A / RFU, TMEM135 / Fold change vs veh, TMEM135 / RFU, DEPTOR / Fold change vs veh, DEPTOR / RFU, CPM / Fold change vs veh, CPM / RFU, DNAJB6 / Fold change vs veh, DNAJB6 / RFU, CACNA2D3 / Fold change vs veh, CACNA2D3 / RFU, DTX4 / Fold change vs veh, DTX4 / RFU, TFCP2 / Fold change vs veh, TFCP2 / RFU, GMCL1 /// GMCL1P1 / Fold change vs veh, GMCL1 /// GMCL1P1 / RFU, AEBP2 / Fold change vs veh, AEBP2 / RFU, SNHG1 /// SNORD22 /// SNORD25 /// SNORD26 /// SNORD27 /// SNORD28 /// SNORD29 /// SNORD31 / Fold change vs veh, SNHG1 /// SNORD22 /// SNORD25 /// SNORD26 /// SNORD27 /// SNORD28 /// SNORD29 /// SNORD31 / Fold change (Aza/veh), C12orf56 (ProbeSet 11735607_a_at) / Fold change (ACY-1035/veh), C12orf56 (ProbeSet 11735607_a_at) / Fold change (Aza/veh), FGFR1OP (ProbeSet 11751329_s_at) / Fold change (ACY-1035/veh), FGFR1OP (ProbeSet 11751329_s_at) / Fold change (Aza/veh), VPS36 (ProbeSet 11739960_a_at) / Fold change (ACY-1035/veh), VPS36 (ProbeSet 11739960_a_at) / RFU SYPL1 (11715823_x_at) / Fold change /veh SYPL1 (11715823_x_at) / RFU IGFBP7 (11715501_s_at) / Fold change /veh IGFBP7 (11715501_s_at) / RFU REEP3 (11722064_at) / Fold change /veh REEP3 (11722064_at) / RFU IGLL1 (11728026_x_at) / Fold change /veh IGLL1 (11728026_x_at): dose or concentration left out as unconfirmed
Settings: ProbeSet 11729173_a_at; LIST D

With `Nc1ccc(-c2cccs2)cc1NC(=O)c1ccc2c(c1)cc(C1CC1)n2CCN1CCOCC1` [ACY-1035] the “Fold change vs veh, SKA2” value was 0.84.
